Consider 26 compounds from PubChem BioAssay (NCI).

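These data come from cells grown in 96-well plates and exposed to compound for 48 hours at five concentrations. TGI is the concentration that stops growth completely.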

Experiment in all cases: NCI-60 cell line screen, 48 h
The subject of test [1] is A498 renal.
Test [2] deals with A549 NSCLC.
In test [3] the test system is COLO 205 colon.
Test [4] has as its system HT29 colon.
Test [5] has as its system KM12 colon.
For test [6], the system named is MDA-MB-231 breast.
Test [7] relates to NCI-H23 lung.
In test [8] the test system is NCI-H460 lung.
In test [9] the test system is OVCAR-5 ovarian.
Test [10] has as its system RPMI-8226 leukemia.
Test [11] concerns UACC-62 melanoma.

On to `CCC(=O)C(CCN1CCC2(CCCc3ccccc32)CC1)(c1ccccc1)c1ccccc1`, for which the TGI is 6.11 µM in test [1]; 15.6 µM in test [2]; 2.91 µM in test [3]; 6.01 µM in test [4]; 4.64 µM in test [5]; 5.78 µM in [6]. In addition, the TGI is 5.45 µM in [7]; 9.4 µM in test [8]; 14.7 µM in test [9]; 2.35 µM in test [10]; 10.7 µM in [11].
Turning to `CC1=NC(=Cc2ccccc2O)C(=O)N1n1c(-c2ccccc2)nc2ccccc2c1=O`, the TGI in test [1], in [2], in [3], in [4], in [5] and in test [6] was greater than 100 µM throughout. In addition, the TGI in test [7] was greater than 100 µM; in test [8], greater than 100 µM; in test [9], greater than 100 µM; in test [10], greater than 100 µM; in [11], 34.6 µM.
For `CCOC(=O)N1N=C(/C(C)=N/OC)C(C)S1=O` (stereo unspecified), the TGI in test [1], in test [2], in test [3], in test [4], in test [5] and in test [6] was greater than 100 µM throughout. The TGI in test [7], in test [8], in test [9], in [10] and in test [11] was greater than 100 µM in each case.
Turning to `NC1CC(=O)c2c1sc(Cl)c2Cl` (stereo unspecified), the TGI in test [1], in test [2], in [3], in [4], in [5] and in test [6] was greater than 100 µM each time. Further, the TGI in [8], in [9], in [10] and in test [11] was greater than 100 µM each time.
`CSC(=S)Nc1cccc(C)n1`: the TGI in [1], in test [2], in test [3], in test [4], in test [5] and in test [6] was greater than 100 µM each time. The TGI in test [7], in [8], in test [9], in test [10] and in test [11] was greater than 100 µM in each case.
As to `[N-]=[N+]=NI1OC(=O)c2ccccc21`, the TGI in test [1], in test [2], in test [3], in test [4], in test [5] and in test [6] was greater than 100 µM each time. The TGI in [7] was greater than 100 µM; in test [9] it was greater than 100 µM; in test [10], 65.7 µM; in test [11], greater than 100 µM.
On to `Cc1cn(CCCCC2=NCCCN2)c(=O)[nH]c1=O`, for which the TGI was greater than 49.4 µM in test [1]; greater than 54.4 µM in test [2]; greater than 43.4 µM in [3]; greater than 23.1 µM in [4]; greater than 48.9 µM in [5]; greater than 42 µM in test [6]. For the same compound, the TGI in test [7] is greater than 44.3 µM; in test [8], greater than 67.8 µM; in test [9], greater than 42.5 µM; in [10], greater than 100 µM; in test [11], greater than 59.1 µM.
For `C[N+]12C=CC=C1C(N1CCCC1)c1scc(-c3ccccc3)c12` (stereo unspecified), the TGI was greater than 100 µM in test [1]; greater than 100 µM in test [2]; 41.2 µM in test [3]; 24.4 µM in test [4]; 31.3 µM in test [5]; greater than 100 µM in test [6]. Besides, the TGI in test [9], in test [10] and in test [11] was greater than 100 µM throughout.
For the compound `c1ccc2oc(-c3ccc(-c4nc5ccccc5o4)c4c3CC4)nc2c1`, the TGI in test [1], in test [2], in test [3], in [4], in test [5] and in test [6] was greater than 100 µM throughout. In addition, the TGI in test [7], in test [8], in [9], in test [10] and in test [11] was greater than 100 µM throughout.
As for `CC(C)(C)C1=CC(C)(n2[nH]c(=O)n(-c3ccccc3)c2=O)C=C(C(C)(C)C)C1=O`, the TGI in test [1], in test [2], in test [3], in test [4], in test [5] and in test [6] was greater than 100 µM throughout. The TGI in test [7], in [8], in test [10] and in [11] was greater than 100 µM in each case.
In the case of `NS(=O)(=O)c1nnc(NS(=O)(=O)C(F)(F)F)s1`, the TGI in test [1], in test [2], in [3], in [4], in test [5] and in [6] was greater than 100 µM in each case. In addition, the TGI in test [7], in test [8], in test [9], in test [10] and in [11] was greater than 100 µM each time.
Consider `COC(=O)C(CCSC)NC(=O)CNC(=O)CSc1nnc(COc2ccc(Cl)cc2)n1-c1ccccc1` (stereo unspecified), for which the TGI was 95.7 µM in test [1]; greater than 100 µM in [2]; 33.6 µM in test [3]; 31.5 µM in test [4]; 44.6 µM in test [5]; 29.4 µM in test [6]. In addition, the TGI in [7] was determined as 30.2 µM; in test [8] it was 31.7 µM; in test [9], 34.7 µM; in [10], 59.7 µM; in [11], 30.3 µM.
For the compound `COc1cc(O)c2c(=O)c(O)c(-c3ccc(O)c(OC)c3)oc2c1`, the TGI in test [1] is greater than 100 µM; in test [2], greater than 100 µM; in [3] it was greater than 86 µM; in test [4] it was greater than 100 µM; in test [5] it was greater than 100 µM; in test [6], greater than 100 µM. Also, the TGI in test [7], in test [8], in [9] and in test [10] was greater than 100 µM each time.
For `CC(=O)C1=CN=C2C(=O)N(c3ccccc3)N(C)C12C` (stereo unspecified), the TGI in test [1] was greater than 100 µM; in test [2] it was greater than 100 µM; in test [3], greater than 100 µM; in [5], 46.8 µM; in test [6], greater than 100 µM; in test [7], greater than 100 µM. In addition, the TGI in [9], in test [10] and in test [11] was greater than 100 µM throughout.
`COc1ccc(OC)c(N(CN2C(=O)CCC2C(=O)O)C(C)=O)c1` (stereo unspecified): the TGI in [1], in test [2], in test [3], in test [4], in test [5] and in test [6] was greater than 100 µM throughout. In addition, the TGI in [7], in test [9], in test [10] and in test [11] was greater than 100 µM in each case.
In the case of `COC(=O)/C=C(\CC(=O)OC)n1nnnc1[C@@H]1C[C@H](COC(c2ccccc2)(c2ccccc2)c2ccccc2)[C@H]2OC(C)(C)O[C@H]21`, the TGI in test [1], in [2], in test [3], in test [4], in test [5] and in test [6] was greater than 100 µM each time. Further, the TGI in test [9] and in test [10] was greater than 100 µM throughout.
For the compound `COc1ccc(OC)c(CNc2ccc(C(=O)O)cc2)c1`, the TGI in test [1], in test [2], in test [3], in [4], in [5] and in [6] was greater than 100 µM in each case. Also, the TGI in test [7], in test [9], in [10] and in test [11] was greater than 100 µM in each case.
Regarding `COc1c(=O)cc2cc[nH]c3ccn(C)c1c23`, the TGI in [1], in test [2], in test [3], in [5], in test [6] and in test [7] was greater than 100 µM in each case. Also, the TGI in [8], in [9], in test [10] and in test [11] was greater than 100 µM in each case.
For the compound `CCc1c(C)c(C#N)c(=S)n(C2OC(COC(C)=O)C(OC(C)=O)C(OC(C)=O)C2OC(C)=O)c1-c1ccccc1` (stereo unspecified), the TGI in test [1], in test [2], in test [3], in test [4], in [5] and in test [6] was greater than 31.6 µM each time. Also, the TGI was greater than 31.6 µM in test [7], greater than 31.6 µM in test [8], greater than 31.6 µM in test [9] and greater than 100 µM in test [10].
As for `O=C(/C=C/c1ccccc1)Oc1ccc(C(=O)/C=C/c2ccc(Cl)cc2)cc1`, the TGI in test [1], in test [2], in [3], in test [4], in test [5] and in test [6] was greater than 100 µM throughout. Besides, the TGI in [8], in test [9], in [10] and in test [11] was greater than 100 µM each time.
Take `CC1=NN(c2nc(N)nc(/C(C#N)=C\c3csc([N+](=O)[O-])c3)n2)C(C)(C)C1`: the TGI in test [1] was greater than 100 µM; in test [4], greater than 100 µM; in [5], greater than 100 µM; in test [6], 64 µM; in [7], 97.5 µM; in test [8], greater than 100 µM. Besides, the TGI in test [9] and in test [10] was greater than 100 µM throughout.
Turning to `CC(C)=CCN1CC(C)C(=O)Nc2ccccc21` (stereo unspecified), the TGI in test [1], in [2], in [3], in test [4], in test [5] and in test [6] was greater than 100 µM throughout. For the same compound, the TGI in test [7], in test [8], in [9] and in test [10] was greater than 100 µM each time.
Consider `O=[N+]([O-])/C(C(Cl)=C(Cl)Cl)=C(/Cl)SCc1ccccc1`, for which the TGI in [1] was 40.8 µM; in test [2], 32.7 µM; in [3], 4.49 µM; in [4], 27.9 µM; in [5], 34.6 µM; in [6], 4.32 µM. Besides, the TGI was found to be 23 µM in test [7], 31.2 µM in test [8], 17.5 µM in test [9] and 14.4 µM in [11].
For the compound `CC1CN=C(N(Cc2ccccc2)C(=O)Nc2ccc(Cl)c(Cl)c2)S1` (stereo unspecified), the TGI in test [1] is greater than 100 µM; in [2], greater than 100 µM; in test [3] it was greater than 100 µM; in test [4] it was greater than 100 µM; in test [5], greater than 100 µM; in test [6], 86.6 µM. Moreover, the TGI in test [7], in [8], in [9] and in test [10] was greater than 100 µM throughout.
In the case of `CC1(C)OCC([C@H]2O[C@@H](CC(=S)NCCCCCCCCCCCCNC(=S)C[C@H]3O[C@@H](C4COC(C)(C)O4)[C@H]4OC(C)(C)O[C@H]43)[C@H]3OC(C)(C)O[C@H]32)O1` (stereo partly specified), the TGI in test [1], in [2], in test [4], in test [5], in test [6] and in test [7] was greater than 100 µM throughout. For the same compound, the TGI is greater than 100 µM in test [8], greater than 100 µM in test [9] and 68.8 µM in test [10].
`Oc1ccc2cc(Br)ccc2c1-c1c(O)ccc2ccc(Br)cc12`: the TGI in [1] was found to be 32.1 µM; in [2], 30.4 µM; in [3], 26.5 µM; in [4] it was 10.1 µM; in test [5], 18.9 µM; in test [6] it was 21.6 µM. Also, the TGI in [7] was 29.1 µM; in test [8], 15.3 µM; in [9], 30.8 µM; in test [11] it was 31 µM.
